# Assays:
# [1] = Encapsulation efficiency in PEG-b-PPS BCNs; type: physicochemical; settings: in PEG-b-PPS BCNs by FNP; hydrophilic cargo co-encapsulated with PhA
# Description: Formation of PEG-b-PPS BCNs—BCNs were formed by flash nanoprecipitation (FNP) technique using a hand-driven CIJ mixer as described previously.^3, 14 10 mg of PEG-b-PPS polymer was dissolved in 500 μL of tetrahydrofuran (THF) and was impinged against 500 μL of Milli-Q water. After impingement the nascent BCNs were diluted in a 1.5 mL reservoir of Milli-Q water. THF was removed by vacuum desiccation overnight, resulting in a 5 mg/mL BCN formulation in water. In cases where hydrophobic cargo was loaded into BCNs, the cargo was dissolved along with the 10 mg of PEG-b-PPS polymer in the 500 μL of THF used for impingement. In cases where hydrophilic cargo was loaded into BCNs, the cargo was dissolved in the 500 μL of water used for impingement.
# Loading and determination of encapsulation efficiency—The loading of hydrophilic molecules (Calcein, FITC-BSA, BODIPY-BSA) or hydrophobic molecules (Pheophorbide A or Camptothecin) in to BCNs was performed using FNP technique as stated above. Here, 500 μL of Calcien (1 mM) or fluorophore-BSA (2 mg/mL) in water was impinged against 500 μL of Pheophorbide A (0.2 mg/ml) or Camptothecin (0.6 mg/ml) in THF into an aqueous reservoir to form BCNs. After removal of THF via desiccation, BCNs were washed two times with distilled water by centrifugation (10,000×g, 10 min) to remove all the unencapsulated payloads and further resuspended in PBS or water for analysis. The amount of Pheophorbide A was determined by calculating absorbance at 666 nm. Calcein, FITC/BODIPY-BSA, and Camptothecin loading was analyzed by measuring fluorescence intensities at 470/509, 495/525, and 359/434 (excitation/emission, nm), respectively.
# [2] = In vitro BCN degradation and release of payloads after irradiation; type: physicochemical; settings: centrifugation
# Description: In vitro BCN degradation and Release of payloads—In vitro degradation studies of PhA BCNs were performed under irradiation. Briefly, 200 μL of PhA BCNs (1 mg/ml) was transferred in to multiple wells of a 96 well black plate and then irradiated for 2.5 min at 50 mW/cm^2. The irradiated samples were immediately collected and centrifuged at 10,000×g for 10 min. After centrifugation, the supernatants and pellets were collected separately and analyzed using DLS and TEM as described above.
# In vitro release of calcein, FITC-BSA, ethyl eosin and PhA from BCNs was measured after irradiation. 200 μL of PBS containing PhA BCNs co-loaded with calcein or FITC-BSA, or PhA BCNs and ethyl eosin BCNs, were transferred in to multiple wells of a 96 well black plate and then irradiated at 50 mW/cm^2 for 1.25, 2.5, 5 and 10 minutes. Post irradiation samples were centrifuged at 10,000×g for 10 min and supernatants were collected and further analyzed for amount released as described earlier. For PhA BCNs and ethyl eosin BCNs, % transmittance was measured using an M3 plate reader.
# RAW 264.7 cells = experiment: MTT cell viability assay; type: cell-based, murine
# Description: Cell culture—RAW 264.7 cells (murine macrophage cell line) were acquired from American Type Culture Collection (ATCC, Rockville, Md., USA) were employed for cell culture experiments.
# MTT assay—RAW 264.7 cells (2×10^5 cells/mL, 100 μL) were plated in each well of a black 96-well plate and adhered overnight. The adhered cells were treated with free PhA (DMSO: PBS, 1:3) or PhA loaded BCNs (PBS) or CT BCNs or PhA-CT BCNs and incubated for 4 h. […] Post irradiation, cells were incubated for predetermined time intervals and then added with MTT (5 mg/mL in PBS, 10 μL). After 4 h MTT incubation with cells, formazan crystal deposition in each well was dissolved in DMSO (200 μL) and the absorbance was measured at 560 nm. All the samples were analyzed in quadruplicates.
# The percentage cell viability was calculated as:
# % cell viability=(OD of treated sample/OD of untreated sample)*100.
# DN1 T cells = experiment: Vaccination with BMDC treated ex vivo with MA or MA BCN, DN1 T cell activation and proliferation; type: in vivo, hCD1Tg mice; settings: 1 or 6 weeks after intratracheal vaccination; MA BCN vs MA pulsed BMDC
# Description: One week before the 1 and 6 week timepoints, 3e6 DN1 T cells were adoptively transferred intravenously. DLN, lung, and spleen were obtained.
# [3] = cited from earlier work
compound,measurement,setting,value
O=C(O)CN(CC(=O)O)Cc1cc2c(cc1O)Oc1cc(O)c(CN(CC(=O)O)CC(=O)O)cc1C21OC(=O)c2ccccc21 [calcein],Encapsulation efficiency,[1],6.7±1.9%
CCOC(=O)c1ccccc1-c1c2cc(Br)c(=O)c(Br)c-2oc2c(Br)c([O-])c(Br)cc12.[K+] [ethyl eosin],Release of photo-oxidizer into the supernatant after irradiation of loaded BCNs,[2],comparably ineffective
"CC[C@@]1(O)C(=O)OCc2c1cc1n(c2=O)Cc2cc3ccccc3nc2-1 [free camptothecin, camptothecin]",Cytotoxicity (MTT viability),"RAW 264.7 cells; free drug, camptothecin 0.63 μg/mL, 48 h",significantly more cytotoxic than non-irradiated CT-PhA-BCNs
same,Cytotoxicity (MTT viability),"RAW 264.7 cells; non-irradiated, 24 h, three camptothecin concentrations (0.63, 1.56, 3.1 μg/mL)",dose-dependent cytotoxicity at 24 h
same,Cytotoxicity (MTT viability),"RAW 264.7 cells; non-irradiated, 48 h, three camptothecin concentrations",high cytotoxicity regardless of concentration at 48 h
FITC-BSA: fluorescein-tagged bovine serum albumin,Encapsulation efficiency,[1],34±4%
mycolic acid [MA],Activation and proliferation of DN1 T cells after vaccination with treated BMDC,DN1 T cells,"differences in activation and proliferation of DN1 T cells 6 weeks after vaccination, but not 1 week after vaccination"
pheophorbide A [PhA],Release of photo-oxidizer into the supernatant after irradiation of loaded BCNs,[2],significantly greater amounts than the comparably ineffective ethyl eosin
same,Encapsulation efficiency,[1],80.7±2.2%
same,logP,[3],6.93
same,Cell viability (MTT),"RAW 264.7 cells; RAW 264.7 cells, with irradiation vs non-irradiated, 12 h after irradiation",significant cell death
